For 2 compounds, Kd results are on record in publication PMC4636139, “Amphipols Outperform Dodecylmaltoside Micelles in Stabilizing Membrane Protein Structure in the Gas Phase” (Analytical Chemistry, 2014).

In one experiment the target is T1, GalP (Escherichia coli, UniProt P0AEP1).
T1 construct: His-tagged (Ni-NTA, HisProbe blot), expressed in E. coli inner membranes, solubilized in DDM or trapped in A8-35
T1 sequence (P0AEP1 1-464): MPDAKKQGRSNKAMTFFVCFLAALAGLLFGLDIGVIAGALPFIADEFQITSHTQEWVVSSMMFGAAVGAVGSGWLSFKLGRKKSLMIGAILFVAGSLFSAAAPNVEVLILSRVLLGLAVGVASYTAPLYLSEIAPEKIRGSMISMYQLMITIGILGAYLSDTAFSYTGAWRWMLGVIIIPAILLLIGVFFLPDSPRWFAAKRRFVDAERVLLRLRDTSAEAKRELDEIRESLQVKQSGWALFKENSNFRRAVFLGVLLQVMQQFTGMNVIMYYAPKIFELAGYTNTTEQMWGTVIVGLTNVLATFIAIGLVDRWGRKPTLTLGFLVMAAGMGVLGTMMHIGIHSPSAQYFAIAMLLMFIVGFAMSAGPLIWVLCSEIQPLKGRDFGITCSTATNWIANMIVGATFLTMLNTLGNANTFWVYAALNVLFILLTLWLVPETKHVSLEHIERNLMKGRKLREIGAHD
Put plainly: tryptophan fluorescence quenching titration. The class given is binding. The procedure: tryptophan fluorescence quenching titration on GalP | GalP activity was assessed by monitoring binding to the small molecule inhibitor forskolin

Another experiment concerns the target T2, Mhp1 (Microbacterium maritypicum, UniProt D6R8X8).
T2 construct: gene hyuP; His-tagged (Ni-NTA, HisProbe blot), expressed in E. coli inner membranes, solubilized in DDM or trapped in A8-35
T2 sequence (D6R8X8 1-489): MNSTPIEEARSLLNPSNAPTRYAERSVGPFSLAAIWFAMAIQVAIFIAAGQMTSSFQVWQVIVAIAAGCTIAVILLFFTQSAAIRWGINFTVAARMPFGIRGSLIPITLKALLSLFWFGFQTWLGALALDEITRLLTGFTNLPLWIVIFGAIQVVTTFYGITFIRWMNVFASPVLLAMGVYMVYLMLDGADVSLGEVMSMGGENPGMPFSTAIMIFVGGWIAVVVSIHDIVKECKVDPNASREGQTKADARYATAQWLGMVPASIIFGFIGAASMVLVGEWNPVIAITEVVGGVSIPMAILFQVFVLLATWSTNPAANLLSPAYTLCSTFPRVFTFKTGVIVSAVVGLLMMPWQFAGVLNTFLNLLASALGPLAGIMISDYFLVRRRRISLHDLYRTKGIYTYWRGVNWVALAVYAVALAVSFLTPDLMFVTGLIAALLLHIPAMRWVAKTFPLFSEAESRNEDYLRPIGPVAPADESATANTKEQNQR
In words: tryptophan fluorescence quenching titration. In kind it is binding. The procedure:
tryptophan fluorescence quenching titration on Mhp1 | The activity of Mhp1 was evaluated by monitoring binding to L-benzylhydantoin, a known ligand

In general, Kd refers to a measure of binding affinity in units of concentration. Read a low Kd as a tighter complex. `C=C[C@@]1(C)CC(=O)[C@]2(O)[C@@]3(C)[C@@H](O)CCC(C)(C)[C@@H]3[C@H](O)[C@H](OC(C)=O)[C@@]2(C)O1` [forskolin] gave a Kd on GalP of 63 ± 19 µM. On Mhp1, `O=C1NC(=O)[C@H](Cc2ccccc2)N1` [L-benzylhydantoin] registered a Kd of 17.6 ± 1.8 µM.
